Experimental data reported in US20190380986A1, “METHOD FOR PRODUCING EXTRACTS ENRICHED WITH SULFOXIDE-FREE ORGANOSULFUR COMPOUNDS, S-ALKENYL-LCYSTEINE AND S-ALKYL-LCYSTEINE, FROM PLANT RAW MATERIALS, AND USES THEREOF IN THE TREATMENT OF INFLAMMATORY DISEASES” (CANVAX BIOTECH, S.L, priority 2017, published 2019).
“Also recorded” adds a separate entry of the source. Counter-ions that a name gives are not always drawn.

Tests used:
Type in all cases: in vivo, Dark Agouti rats
[1] = tested on: GSH/GSSG ratio and lipoperoxides (LPO); assay: Biomarkers of oxidative stress (LPO, GSH/GSSG ratio) in brain and spinal cord of EAE rats; conditions: FIG. 4; for GSH/GSSG ratio in brain and spinal cord: Example 3, end of study (35 days), NAC and SAC oral 50 mg/kg, versus untreated EAE
Description: (§1) 70 Dark Agouti rats were used, 35 females and 35 males. Each group of 10 animals had 5 male rats housed in individual boxes and 5 females equally maintained in individual boxes. The following groups were included: i) Controls (untreated healthy animals); ii) vehicle (animals injected in the tail with 100 microlitres of Freund's complete adjuvant (FCA) but without the EAE-inducing peptide, the MOG peptide ([…]); iii) EAE (animals injected once into the tail with 150 μg of MOG (Sigma-Aldrich) in 100 microlitres of FCA); iv) EAE+dimethyl fumarate (EAE+DMF); v) EAE+N-acetyl cysteine (EAE+NAC); and vi) EAE+SAC. The treatments with NAC and SAC were administered to the animals orally using a probe and at a dose of 50 mg/kg of animal weight.
At the end of the study, the animals were decapitated at a controlled temperature using intraperitoneal anaesthesia with ketamine 75 mg/kg (Imalgene 100 mg/ml, Merial Laboratories, Barcelona, Spain). The brains, blood and spinal cord were extracted, weighed and homogenized with a mechanical homogenizer (Tempest Virtis), using 20 mM Tris at pH 7.4 as a buffer. The samples were centrifuged cold and the supernatants were immediately collected and stored at −80° C.
Total protein levels were quantified by the Bradford method and referenced to the original tissue weight. Oxidative stress parameters such as lipid peroxidation (LPO), total glutathione (tG) and reduced glutathione (GSH) were then measured in blood, brain and spinal cord using kits from Bioxytech SA (Oxis International, Portland, Oreg., USA): LPO-586, GSH-420 and GSH-400, respectively. Oxidised glutathione levels (GSSG) were calculated by subtracting reduced glutathione from total glutathione and the GSH/GSSG ratio was calculated.
(§2) The statistical analysis was performed with the SPSS program (SPSS Ibérica, Madrid, Spain). The data are reported as mean±standard deviation (SD). […] To analyse the correlation between the biochemical parameters and the mobility of the animals at 35 days (Clinical assessment-35), Spearman's rho correlation coefficient was used. The level of statistical significance was established at p<0.05.

[2] = tested on: EAE (experimental autoimmune encephalomyelitis); assay: Clinical assessment of mobility in rats with EAE induced by MOG/FCA; conditions: for Change in the clinical assessment of mobility between day 35 and day 14: Example 3, NAC and SAC oral 50 mg/kg, treatment for 21 days, FIG. 3; for Change in the clinical assessment of mobility between days 35 and 14: FIG. 5
Experimental: Next, an experiment was designed to study the effect of SAC in rats with EAE (experimental autoimmune encephalomyelitis), a model of multiple sclerosis widely used for the development of new treatments for this neurodegenerative disease in humans. To evaluate the effect of this compound on the disease, the change in clinical parameters of mobility in each of the joints and in the tail (clinical score or clinical assessment) was measured, as well as the biomarkers of oxidative stress that explain the change in joint mobility in rats.
as §1
The mobility of the rats was evaluated using the method described by Pérez-Nievas (Pérez-Nievas, 2010) in which 0 is equivalent to not having any affected joint or tail; 1 equals paralysis in the tail; 2 equals partial mobility in the hind legs; 3 equals paralysis in the hind legs; 4 equals paralysis in the hind legs and partial mobility in the front legs and 5 equals a dying animal or that must be sacrificed for ethical reasons.
as §2
Next, an experiment was designed to study whether the effect of NAC and SAC were different depending on the dose administered in animal models of EAE. For this, the change in clinical parameters of mobility in each of the joints and the tail (clinical score or clinical assessment) was measured at 2 different doses of NAC and SAC; 18 mg/kg and 50 mg/kg administered orally for 5 days a week and following the same experimental design as Example 3.
(§3) 70 Dark Agouti rats, 35 females and 35 males, were used. Each group of 10 animals had 5 male rats housed in individual boxes and 5 females equally maintained in individual boxes. The following groups were included: i) Controls (untreated healthy animals); ii) vehicle (animals injected in the tail with 100 microlitres of Freund's complete adjuvant (FCA) but without the EAE-inducing peptide, the MOG peptide; iii) EAE (animals injected 1 time in the tail with 150 μg of MOG (Sigma-Aldrich) in 100 microlitres of FCA); iv) EAE+N-acetyl cysteine at 18 mg/kg (EAE+NAC18); v) EAE+N-acetyl cysteine at 50 mg/kg (EAE+NACSO); vi) EAE+SAC at 18 mg/kg (EAE+SAC18) and vii) EAE+SAC at 50 mg/kg (EAE+SAC50). The treatments with NAC and SAC were administered to the animals orally 5 days a week at a dose of 18 mg/kg or 50 mg/kg of the animal's weight.
The analysis of the mobility of the animals, their sacrifice, tissue management, determination of the total proteins and the statistical analysis, was carried out as previously described in Example 3.

[3] = tested on: LPS (bacterial lipopolysaccharide); assay: LPS levels (LAL chromogenic endotoxin kit) in blood and spinal cord of EAE rats; conditions: Example 4, 50 mg/kg orally, SAC compared to NAC at the same concentration, FIG. 7
Experimental: as §3, with “weight. […]” for “weight.”
(§4) The measurement of lipopolysaccharide-binding soluble lipoprotein (LBP) levels was performed with the LBP soluble ELISA Kit (Enzo®, USA), in a sandwich ELISA system following the manufacturer's instructions. The levels of lipopolysaccharide (LPS) in blood and spinal cord were measured with the Pierce LAL Chromogenic endotoxin quantification kit supplied by Thermo Scientific (USA), following the manufacturer's instructions.® The data are presented as endotoxin units per milligram of tissue protein.

[4] = tested on: LBP (lipopolysaccharide binding protein); assay: Soluble LBP levels (ELISA) in brain, spinal cord and blood of EAE rats; conditions: authors' observation in the background section
Experimental: as §3, with “weight. […]” for “weight.”
as §4

[5] = Example 4, 18 mg/kg orally 5 days a week
[6] = Example 4, 50 mg/kg orally 5 days a week

| Compound | GSH/GSSG ratio in brain and spinal cord [1] | Change in the clinical assessment of mobility between day 35 and day 14 [2] | Oxidative damage induced by MOG/FCA (LPO, GSH/GSSG), SAC compared with NAC ([1]; Example 3, oral 50 mg/kg, 35 days) | Levels of LPS in blood and spinal cord [3] | Change in the clinical assessment of mobility between days 35 and 14 [2, 5] | Change in the clinical assessment of mobility between days 35 and 14 [2, 6] | Level of LBP after administration in animal models (pro-inflammatory effect) [4] |
| --- | --- | --- | --- | --- | --- | --- | --- |
| COC(=O)/C=C/C(=O)OC [DMF, dimethyl fumarate] | increased the GSH/GSSG ratio with respect to untreated animals (EAE); also recorded: induces an increase in the GSH/GSSG ratio | showed a reduction of the clinical assessment of mobility between day 35 and 14 |  |  |  |  |  |
| C=CCSC[C@H](N)C(=O)O [SAC, S-allyl-L-cysteine] | increased the GSH/GSSG ratio with respect to untreated animals (EAE); also recorded: induces an increase in the GSH/GSSG ratio | showed a reduction of the clinical assessment of mobility between day 35 and 14 | more effective than NAC in minimising oxidative damage induced by MOG/FCA; also recorded: corrects the oxidative damage induced by MOG/FCA to a higher percentage than the NAC | significantly reduced the levels of LPS in blood and spinal cord compared to NAC | caused a reduction in the clinical assessment of mobility equivalent to that caused by 50 mg/kg of NAC or SAC | equally effective with respect to the group of animals with EAE without treatment |  |
| CC(=O)N[C@@H](CS)C(=O)O [NAC, N-acetylcysteine] | increased the GSH/GSSG ratio with respect to untreated animals (EAE); also recorded: induces an increase in the GSH/GSSG ratio | showed a reduction of the clinical assessment of mobility between day 35 and 14 |  |  | did not cause a reduction of the clinical assessment of mobility between days 35 and 14 | equally effective with respect to the group of animals with EAE without treatment | the level of LBP (lipopolysaccharide binding protein) increases |
